Literature values in patent US20080269334A1, “Highly Concentrated Pourable Aqueous Solutions Of Potassium Ibuprofen, Their Preparation And Their Use” (ALBEMARLE CORPORATION, priority 2005, published 2008).

Row | SMILES | solubility of ibuprofen in a solvent system (402 mg ibuprofen, 100 mg PEG 600, 3.3 wt % glycerin or propylene glycol, 6.4 wt % water, 38.4 mg KOH, U.S. Pat. Nos. 5,071,643 and 5,360,615) | concentration of dissolved potassium ibuprofen (U.S. Pat. No. 5,912,011 Table 1, system with 35.2 wt % ibuprofen, 33.3 wt % PEG 600, 7.3 wt % water) | maximum concentration of dissolved potassium ibuprofen shown (U.S. Pat. No. 6,387,400, polyethylene glycol solvent, less than about 50 mole % of ibuprofen converted to the potassium salt)
1 | CC(C)Cc1ccc(C(C)C(=O)O)cc1 (stereo not drawn) [ibuprofen] | 67% | – | –
2 | CC(C)Cc1ccc(C(C)C(=O)[O-])cc1.[K+] (stereo not drawn) [potassium ibuprofen, potassium 2-(4-isobutylphenyl)propionate] | – | 24.2 wt % | about 24.2 wt %
